Reference: the COVID Moonshot data (paper PMC7615835)
Several values for one entry are separate records, joined by “and”; a condition that tells them apart may be missing. Identical values can stand only once.

biological target: SARS-CoV-2 Main Protease (SARS-CoV-2) (UniProt P0DTD1)

| Structure (SMILES) | IC50 |
| --- | --- |
| CC(C)NC(=O)CN1CC(C(=O)Nc2cncc3cc(S(C)(=O)=O)ccc23)c2cc(Cl)ccc2C1=O (stereo not drawn) | 332 nM |
| O=C(Nc1cc(=O)[nH]c2ccccc12)C1CCOc2ccc(Cl)cc21 (stereo not drawn) | > 99500 nM |
| Cc1nn(C)c2nc(Cl)cc(NNC(=O)c3ccnc4[nH]nnc34)c12 | > 99500 nM |
| CNC(=O)CN1CC(C)(C(=O)Nc2cncc3cccc(Cl)c23)c2cc(Cl)ccc2S1(=O)=O (stereo not drawn) | 1160 nM |
| NC(=O)c1c(Nc2cc(Cl)cc(CC(=O)Nc3cncc4ccccc34)c2)sc2c1CCCC2 | 2430 nM |
| O=C(Cc1cc(Cl)cc(NC(c2ccccc2)c2ccccc2)c1)Nc1cncc2ccccc12 | 3360 nM |
| COC(=O)[C@@H]1CC[C@H](NC(=O)C(c2cccnc2)N(C(=O)c2cocn2)c2ccc(C(C)(C)C)cc2)C1 (stereo in doubt) | 2380 nM |
| CC(CNc1ccc2nnnn2n1)c1nc2ccccc2s1 (stereo not drawn) | > 99500 nM |
| CN(C)S(=O)(=O)N1CCc2ccc(Cl)cc2C1C(=O)Nc1cncc2ccccc12 (stereo not drawn) | 1970 nM |
| Cc1cc(C)n2ncc(C(=O)Nc3ccc4ncsc4c3)c2n1 | > 99500 nM |
| O=C(Cc1cccc(C(F)(F)F)c1)Nc1cncc2ccccc12 | 6940 nM |
| C=CC(=O)N(c1ccc(C(F)(F)F)cc1)C(C(=O)NCCc1cccc(F)c1)c1cncc(Cl)c1 (stereo not drawn) | 23900 nM |
| CNC(=O)CN1CC2(CCN(c3cncc4cccc(Cl)c34)C2=O)c2cc(Cl)ccc2C1=O (stereo not drawn) | 1670 nM |
| O=C(Cc1cc(Cl)cc(OC2CC(=O)N2)c1)Nc1cncc2ccccc12 (stereo not drawn) | 274 nM and 150 nM |
| C=CC(=O)N(c1ccc2ncsc2c1)C(C(=O)Nc1cccc(CC)c1)c1cccnc1 (stereo not drawn) | 63300 nM and 55000 nM |
| COc1ccc(N(C(=O)c2ccco2)C(C(=O)NCCc2cccc(F)c2)c2cccnc2)cc1OCCO (stereo not drawn) | > 99500 nM |
| O=C(Nc1cncc2ccccc12)N1CCOc2ccc(Cl)cc21 | 11400 nM |
| N#CCC1(CS(=O)(=O)N2Cc3ccc(Cl)cc3C(C(=O)Nc3cncc4ccccc34)C2)CC1 (stereo not drawn) | 128 nM |
| Cc1ccncc1NC(=O)CN(C)S(=O)(=O)c1cccc2cccnc12 | > 99000 nM |
| CCc1n[nH]c(=O)c(-c2nc(-c3c[nH]c4ncccc34)cs2)c1CC | > 99500 nM |
| Cc1cccc2c(NC(=O)Cc3cccc(Cl)c3)cncc12 | > 99500 nM |
| COc1ccc([C@H](C)Nc2cc(Cl)cc(CC(=O)Nc3cncc4ccccc34)c2)cc1 (stereo in doubt) | 4730 nM |
| O=C(Cc1cc(Cl)cc(Nc2ccc(-n3ccnc3)cc2)c1)Nc1cncc2ccccc12 | 2460 nM |
| Cc1cc(C(=O)N2CCC(C3CCNC3)CC2)cc(S(=O)(=O)N(C)C)c1C (stereo not drawn) | > 99500 nM |

| Structure (SMILES) | IC50 |
| --- | --- |
| COc1ncc(Nc2cc(Cl)cc(CC(=O)Nc3cncc4ccccc34)c2)cc1Br | 1740 nM |
| Cn1ncc2c(NCc3ccc4cccnc4c3)ncnc21 | > 99500 nM |
| O=C(Nc1cncc2ccccc12)C1CN(S(=O)(=O)C2COC2)Cc2ccc(Cl)cc21 (stereo not drawn) | 246 nM |
| O=C(NCCc1cccc(F)c1)C(c1cccnc1)N(C(=O)c1cocn1)c1ccc(C(F)(F)F)nc1 (stereo not drawn) | 36400 nM |
| CC(C)(C)c1ccc(N(C(=O)c2ncc[nH]2)C(C(=O)NCCc2cccc(F)c2)c2cccnc2)cc1 (stereo not drawn) | 5290 nM |
| Cn1nc(C(=O)N2CCOCC2)cc1C(=O)N(c1ccc(C(C)(C)C)cc1)C(C(=O)NCCc1cccc(F)c1)c1cccnc1 (stereo not drawn) | 92100 nM |
| Cc1ccc2nnc(CNc3ccc4nnc(C(F)(F)F)n4n3)n2c1 | > 99500 nM |
| CC(C)(C)c1ccc(N(C(=O)c2cn3ccccc3n2)C(C(=O)NCCc2cccc(F)c2)c2cccnc2)cc1 (stereo not drawn) | 18200 nM |
| N#CC1CN(S(=O)(=O)NCc2ccc(Cl)cc2CC(=O)Nc2cncc3ccccc23)C1 | 231 nM |
| CC(C)NS(=O)(=O)N1Cc2ccc(Cl)cc2C(C(=O)Nc2cncc3ccccc23)C1 (stereo not drawn) | 195 nM |
| COc1ccc2cncc(NC(=O)C3CCNc4cc(Cl)c(Cl)cc43)c2c1 (stereo not drawn) | 131 nM |
| O=C(Nc1cncc2cc(F)ccc12)[C@@H]1CCS(=O)(=O)c2ccc(Cl)cc21 (stereo in doubt) | 294 nM |
| Nc1cncc(NC(=O)C2CCOc3ccc(Cl)cc32)c1C1CC1 (stereo not drawn) | 4950 nM |
| O=C(c1cc(=O)[nH]c2ccccc12)N1CCN(c2cccc(Cl)c2)CC1 | 2160 nM |
| CCS(=O)(=O)c1ccc(CNS(=O)(=O)c2cnc(-c3ccccc3)s2)s1 | > 99500 nM |
| Cc1ccc(S(=O)(=O)N2CCN(C(=O)CCl)C[C@H]2C(=O)NCCc2ccccc2)cc1 (stereo in doubt) | 11800 nM |
| O=C(Nc1cccc2cc[nH]c12)c1cccc2[nH]c(=O)oc12 | > 99500 nM |
| O=C(c1ccc(N2CCCC2)nc1)N1CCCC(c2ccn[nH]2)C1 (stereo not drawn) | > 99500 nM |
| CC(C)(C)c1ccc(N(C(=O)c2nnc(S)[nH]c2=O)C(C(=O)NCCc2cccc(F)c2)c2cccnc2)cc1 (stereo not drawn) | > 99500 nM |
| O=C(Cc1cc(Cl)cc(Nc2nnc(C(F)(F)F)s2)c1)Nc1cncc2ccccc12 | 2440 nM |
| O=C(Nn1cnc2ccccc21)C(Cc1cccc(Cl)c1)c1ccc(N2CCOCC2)cc1 (stereo not drawn) | > 99500 nM |
| CNC(=O)CN1CC(C(=O)Nc2cncc3cccc(C)c23)c2cc(Cl)ccc2C1=O (stereo not drawn) | 361 nM |
| N#CCNC(=O)CN1Cc2ccc(Cl)cc2C2(CCN(c3cncc4ccccc34)C2=O)C1 (stereo not drawn) | 263 nM |
| N#CC1(CS(=O)(=O)N2Cc3ccc(Cl)cc3C(C(=O)Nc3cncc4ccccc34)C2)CCCC1 (stereo not drawn) | 79 nM and 88.4 nM |
